The values below come from paper PMC8956313, “Biological investigation of N-methyl thiosemicarbazones as antimicrobial agents and bacterial carbonic anhydrases inhibitors” (Journal of Enzyme Inhibition and Medicinal Chemistry, 2022).

Assay in all cases: stopped-flow CO2 hydrase assay
Type in all cases: biochemical

The target of experiment [1] is T1, EcoγCA (Escherichia coli, UniProt P0A9W9).
T1 construct: gene yrdA; recombinant, expressed in E. coli (DE3), purified
T1 sequence (P0A9W9 1-184): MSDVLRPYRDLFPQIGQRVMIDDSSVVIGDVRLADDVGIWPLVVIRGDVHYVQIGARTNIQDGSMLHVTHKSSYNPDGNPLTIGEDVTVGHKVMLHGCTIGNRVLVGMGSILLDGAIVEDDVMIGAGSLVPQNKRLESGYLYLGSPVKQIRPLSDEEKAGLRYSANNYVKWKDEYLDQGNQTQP

For experiment [2], the target named is T2, psCA3-β (Pseudomonas aeruginosa, UniProt Q9HVB9).
T2 construct: gene PA4676; recombinant, expressed in E. coli (DE3), purified
T2 sequence (Q9HVB9 1-215): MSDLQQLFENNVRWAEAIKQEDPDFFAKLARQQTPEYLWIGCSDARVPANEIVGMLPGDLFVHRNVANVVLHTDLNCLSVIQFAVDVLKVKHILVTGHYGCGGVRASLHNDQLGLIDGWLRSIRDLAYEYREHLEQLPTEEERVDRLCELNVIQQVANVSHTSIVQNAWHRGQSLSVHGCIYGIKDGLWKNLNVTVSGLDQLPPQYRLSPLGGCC

For experiment [3], the target named is T3, hCA II (Homo sapiens, UniProt P00918).
T3 construct: gene CA2; recombinant, obtained in house

Experiment [4] has as its target T4, EcoβCA (Escherichia coli, UniProt P61517).
T4 construct: gene can; recombinant, expressed in E. coli (DE3), purified

Experiment [5] addresses T5, hCA I (Homo sapiens, UniProt P00915).
T5 construct: gene CA1; recombinant, obtained in house

In experiment [6] the target is T6, HpβCA (Helicobacter pylori, UniProt O24855).
T6 construct: gene cynT; recombinant, expressed in E. coli (DE3), purified
T6 sequence (O24855 1-221): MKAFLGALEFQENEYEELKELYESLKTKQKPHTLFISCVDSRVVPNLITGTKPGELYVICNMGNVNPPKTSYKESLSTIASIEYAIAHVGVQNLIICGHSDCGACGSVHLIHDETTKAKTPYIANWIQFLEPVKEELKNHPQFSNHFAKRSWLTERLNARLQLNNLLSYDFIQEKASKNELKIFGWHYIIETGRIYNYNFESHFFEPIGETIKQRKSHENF

The target in experiment [7] is T7, HpαCA (Helicobacter pylori, UniProt O25798).
T7 construct: gene HP_1186; recombinant, expressed in E. coli (DE3), purified
T7 sequence (O25798 19-202): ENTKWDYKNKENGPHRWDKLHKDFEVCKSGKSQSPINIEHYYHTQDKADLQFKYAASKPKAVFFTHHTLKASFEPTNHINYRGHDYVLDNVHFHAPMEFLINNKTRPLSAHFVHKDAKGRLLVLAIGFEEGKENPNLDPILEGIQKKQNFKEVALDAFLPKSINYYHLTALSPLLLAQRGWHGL
The following applies: HEPES pH 7.40, 20 mM Na2SO4, 15 min preincubation, room temperature.

T5 sequence (P00915 2-261): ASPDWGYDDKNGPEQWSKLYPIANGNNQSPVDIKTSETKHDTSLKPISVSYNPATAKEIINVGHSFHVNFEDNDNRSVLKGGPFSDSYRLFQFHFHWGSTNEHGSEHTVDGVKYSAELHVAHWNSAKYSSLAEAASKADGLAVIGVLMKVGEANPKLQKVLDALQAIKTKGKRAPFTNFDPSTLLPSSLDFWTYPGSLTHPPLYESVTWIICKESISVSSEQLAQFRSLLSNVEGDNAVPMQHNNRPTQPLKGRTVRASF
T4 sequence (P61517 whole entry): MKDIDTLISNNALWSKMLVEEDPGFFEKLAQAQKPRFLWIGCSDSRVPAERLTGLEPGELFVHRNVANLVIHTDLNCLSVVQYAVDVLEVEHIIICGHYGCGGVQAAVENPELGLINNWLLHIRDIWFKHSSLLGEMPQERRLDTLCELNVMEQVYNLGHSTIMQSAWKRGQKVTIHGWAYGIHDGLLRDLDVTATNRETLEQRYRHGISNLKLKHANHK

Consider `CNC(=S)NN=C(C)c1ccc(OC)cc1` [compound 1, TSC 1], for which the Ki was 86.2 µM in experiment [1], 92.1 µM in experiment [2] and above 800 µM in experiment [3].

For `CNC(=S)NN=C(C)c1ccc(S(C)(=O)=O)cc1` [compound 2, TSC 2], the Ki in experiment [1] was 80 µM; in experiment [2], 93.4 µM; in experiment [3] it was above 800 µM.

`CNC(=S)NN=C(C)c1ccc(N2CCOCC2)cc1` [compound 3, TSC 3]: the Ki in experiment [4] was 91.5 µM; in experiment [3] it was above 800 µM.

On to `CNC(=S)NN=C(C)c1ccc(-n2ccnc2)cc1` [compound 4, TSC 4], for which the Ki in experiment [5] was above 1000 µM.

In the case of `CNC(=S)NN=C(C)c1ccc(-c2cc3ccccc3[nH]2)cc1` [compound 5, TSC 5], the Ki worked out at 348 µM in experiment [6] and 95.2 µM in experiment [7].

Regarding `CNC(=S)NN=C(C)c1ccc2c(c1)OCO2` [compound 6, TSC 6], in experiment [5], the Ki is above 1000 µM.

For `CNC(=S)NN=C(C)c1ccc2c(c1)OCCO2` [compound 7, TSC 7], the Ki was 96.5 µM in experiment [4] and above 1000 µM in experiment [5].

For `CNC(=S)NN=C(C)c1ccc(Br)s1` [compound 9, TSC 9], the Ki in experiment [1] is 83.2 µM; in experiment [2], 86.7 µM; in experiment [3] it was above 800 µM.
